# According to ChEMBL document CHEMBL1201862, “PubChem BioAssay data set” (2004):
#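 Interpolation was linear, between the two tested concentrations surrounding the appropriate level; five concentrations were tested over 48 hours in 96-well plates. GI50: concentration for 50% inhibition of growth.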 The source made the active and inactive calls. No stated cut-off is given here; in the data, active = GI50 up to about 1.1 µM and inactive = higher.
# Tests used:
# Assay in all cases: NCI tumour cell line growth inhibition, 48 h
# HCT-15 = system: HCT-15
# XF498 = system: XF498
# HOP-62 = system: HOP-62
# HCC 2998 = system: HCC 2998
# IGROV-1 = system: IGROV-1
# SK-MEL-2 = system: SK-MEL-2
# MCF7 = system: MCF7
# KM-20L2 = system: KM-20L2
# SK-OV-3 = system: SK-OV-3
# CAKI-1 = system: CAKI-1
# UACC-62 = system: UACC-62
# COLO 205 = system: COLO 205
# HT-29 = system: HT-29
# SNB-75 = system: SNB-75
# OVCAR-4 = system: OVCAR-4
# NCI-H522 = system: NCI-H522
# SF-268 = system: SF-268
# DLD-1 = system: DLD-1
# Malme-3M = system: Malme-3M
# M19-MEL = system: M19-MEL
# HOP-18 = system: HOP-18
# SN12C = system: SN12C
# SNB-19 = system: SNB-19
# SW-620 = system: SW-620
# LOX IMVI = system: LOX IMVI
# RXF 393 = system: RXF 393
# A549 = system: A549
# HCT-116 = system: HCT-116
# KM12 = system: KM12
# RPMI-8226 = system: RPMI-8226
# SNB-78 = system: SNB-78
# OVCAR-8 = system: OVCAR-8
# OVCAR-5 = system: OVCAR-5
# EKVX = system: EKVX
# DMS-114 = system: DMS-114
# OVCAR-3 = system: OVCAR-3
# NCI-H23 = system: NCI-H23
# SF-295 = system: SF-295
# DMS-273 = system: DMS-273
# A498 = system: A498
# NCI/ADR-RES = system: NCI/ADR-RES
# UACC-257 = system: UACC-257
# UO-31 = system: UO-31
# NCI-H226 = system: NCI-H226
# U-251 = system: U-251
# CCRF-CEM = system: CCRF-CEM
# NCI-H460 = system: NCI-H460
# SF-539 = system: SF-539
# K562 = system: K562
# SK-MEL-5 = system: SK-MEL-5
# HL-60 = system: HL-60
# MOLT-4 = system: MOLT-4
# HOP-92 = system: HOP-92
# SK-MEL-28 = system: SK-MEL-28
# LXFL 529 = system: LXFL 529
# ACHN = system: ACHN
# 786-0 = system: 786-0
# TK-10 = system: TK-10
# M14 = system: M14
smiles,measurement,setting,value
CNC(=O)SCC(NC(=O)CCC(N)C(=O)O)C(=O)NCC(=O)O (centres undefined),GI50,HCT-15,> 78 µM
same,GI50,XF498,> 100 µM (inactive)
same,GI50,HOP-62,> 100 µM (inactive)
same,GI50,HCC 2998,> 100 µM (inactive)
same,GI50,IGROV-1,> 100 µM (inactive)
same,GI50,SK-MEL-2,> 85.7 µM (inactive)
same,GI50,MCF7,> 100 µM (inactive)
same,GI50,KM-20L2,> 100 µM (inactive)
same,GI50,SK-OV-3,> 100 µM (inactive)
same,GI50,CAKI-1,> 100 µM (inactive)
same,GI50,UACC-62,98.9 µM (inactive)
same,GI50,COLO 205,51.2 µM (inactive)
same,GI50,HT-29,> 84.5 µM (inactive)
same,GI50,SNB-75,> 100 µM (inactive)
same,GI50,OVCAR-4,> 100 µM (inactive)
same,GI50,NCI-H522,> 86.5 µM (inactive)
same,GI50,SF-268,> 80.4 µM (inactive)
same,GI50,DLD-1,> 83 µM (inactive)
same,GI50,Malme-3M,> 65.5 µM (inactive)
same,GI50,M19-MEL,> 100 µM (inactive)
same,GI50,HOP-18,> 82.2 µM (inactive)
same,GI50,SN12C,> 89.7 µM (inactive)
same,GI50,SNB-19,> 100 µM (inactive)
same,GI50,SW-620,> 100 µM (inactive)
same,GI50,LOX IMVI,67.9 µM (inactive)
same,GI50,RXF 393,> 100 µM (inactive)
same,GI50,A549,> 100 µM (inactive)
same,GI50,HCT-116,> 84.7 µM (inactive)
same,GI50,KM12,> 100 µM (inactive)
same,GI50,RPMI-8226,42.3 µM (inactive)
same,GI50,SNB-78,> 100 µM (inactive)
same,GI50,OVCAR-8,> 100 µM (inactive)
same,GI50,OVCAR-5,> 100 µM (inactive)
same,GI50,EKVX,75 µM (inactive)
same,GI50,DMS-114,39 µM (inactive)
same,GI50,OVCAR-3,> 100 µM (inactive)
same,GI50,NCI-H23,> 100 µM (inactive)
same,GI50,SF-295,> 100 µM (inactive)
same,GI50,DMS-273,> 83.9 µM (inactive)
same,GI50,A498,> 100 µM (inactive)
same,GI50,NCI/ADR-RES,> 100 µM (inactive)
same,GI50,UACC-257,> 100 µM (inactive)
same,GI50,UO-31,> 100 µM (inactive)
same,GI50,NCI-H226,> 100 µM (inactive)
same,GI50,U-251,> 86.7 µM (inactive)
same,GI50,CCRF-CEM,> 50 µM (inactive)
same,GI50,NCI-H460,> 100 µM (inactive)
same,GI50,SF-539,> 96.4 µM (inactive)
same,GI50,K562,34.8 µM (inactive)
same,GI50,SK-MEL-5,> 100 µM (inactive)
same,GI50,HL-60,> 31.6 µM (inactive)
same,GI50,MOLT-4,60.8 µM (inactive)
same,GI50,HOP-92,> 68.4 µM (inactive)
same,GI50,SK-MEL-28,> 100 µM (inactive)
C[C@H](CN1CC(=O)NC(=O)C1)N1CC(=O)NC(=O)C1,GI50,HCT-15,> 76.2 µM
same,GI50,XF498,> 100 µM (inactive)
same,GI50,HOP-62,> 65 µM (inactive)
same,GI50,HCC 2998,22.7 µM (inactive)
same,GI50,IGROV-1,> 100 µM (inactive)
same,GI50,SK-MEL-2,> 10 µM (inactive)
same,GI50,MCF7,44.2 µM (inactive)
same,GI50,KM-20L2,> 87.7 µM (inactive)
same,GI50,SK-OV-3,> 100 µM (inactive)
same,GI50,CAKI-1,> 100 µM (inactive)
same,GI50,UACC-62,> 100 µM (inactive)
same,GI50,COLO 205,11.7 µM (inactive)
same,GI50,HT-29,> 100 µM (inactive)
same,GI50,SNB-75,> 100 µM (inactive)
same,GI50,OVCAR-4,> 100 µM (inactive)
same,GI50,NCI-H522,20.8 µM (inactive)
same,GI50,SF-268,> 96.2 µM (inactive)
same,GI50,DLD-1,> 86.5 µM (inactive)
same,GI50,Malme-3M,42.9 µM (inactive)
same,GI50,M19-MEL,> 100 µM (inactive)
same,GI50,HOP-18,> 100 µM (inactive)
same,GI50,SN12C,> 85.3 µM (inactive)
same,GI50,SNB-19,50.4 µM (inactive)
same,GI50,SW-620,> 47.3 µM (inactive)
same,GI50,LOX IMVI,> 100 µM (inactive)
same,GI50,RXF 393,> 100 µM (inactive)
same,GI50,A549,> 70.5 µM (inactive)
same,GI50,HCT-116,82.4 µM (inactive)
same,GI50,KM12,> 100 µM (inactive)
same,GI50,RPMI-8226,> 53.2 µM (inactive)
same,GI50,SNB-78,> 100 µM (inactive)
same,GI50,OVCAR-8,> 100 µM (inactive)
same,GI50,OVCAR-5,> 100 µM (inactive)
same,GI50,EKVX,57 µM (inactive)
same,GI50,DMS-114,0.18 µM (active)
same,GI50,OVCAR-3,> 100 µM (inactive)
same,GI50,NCI-H23,> 86.1 µM (inactive)
same,GI50,SF-295,> 100 µM (inactive)
same,GI50,DMS-273,> 100 µM (inactive)
same,GI50,A498,> 64.6 µM (inactive)
same,GI50,NCI/ADR-RES,> 100 µM (inactive)
same,GI50,UACC-257,> 100 µM (inactive)
same,GI50,UO-31,20 µM (inactive)
same,GI50,NCI-H226,39 µM (inactive)
same,GI50,U-251,58.2 µM (inactive)
same,GI50,CCRF-CEM,34.3 µM (inactive)
same,GI50,NCI-H460,9.31 µM (inactive)
same,GI50,SF-539,> 100 µM (inactive)
same,GI50,K562,> 84.3 µM (inactive)
same,GI50,SK-MEL-5,> 100 µM (inactive)
same,GI50,MOLT-4,9.89 µM (inactive)
same,GI50,HOP-92,> 100 µM (inactive)
same,GI50,SK-MEL-28,> 100 µM (inactive)
CCCCCCCCCCCCCS(=O)(=O)NCC(N)=O,GI50,HCT-15,> 100 µM
same,GI50,XF498,69.8 µM (inactive)
same,GI50,HOP-62,> 100 µM (inactive)
same,GI50,HCC 2998,> 100 µM (inactive)
same,GI50,LXFL 529,> 100 µM (inactive)
same,GI50,IGROV-1,> 100 µM (inactive)
same,GI50,ACHN,> 100 µM (inactive)
same,GI50,SK-MEL-2,> 100 µM (inactive)
same,GI50,KM-20L2,> 100 µM (inactive)
same,GI50,SK-OV-3,> 100 µM (inactive)
same,GI50,786-0,> 100 µM (inactive)
same,GI50,UACC-62,> 100 µM (inactive)
same,GI50,COLO 205,> 100 µM (inactive)
same,GI50,HT-29,> 100 µM (inactive)
same,GI50,SNB-75,25.6 µM (inactive)
same,GI50,OVCAR-4,> 100 µM (inactive)
same,GI50,NCI-H522,> 100 µM (inactive)
same,GI50,SF-268,> 100 µM (inactive)
same,GI50,DLD-1,> 100 µM (inactive)
same,GI50,Malme-3M,> 100 µM (inactive)
same,GI50,M19-MEL,> 100 µM (inactive)
same,GI50,HOP-18,> 100 µM (inactive)
same,GI50,SN12C,> 100 µM (inactive)
same,GI50,SNB-19,> 100 µM (inactive)
same,GI50,SW-620,> 100 µM (inactive)
same,GI50,LOX IMVI,> 100 µM (inactive)
same,GI50,RXF 393,> 100 µM (inactive)
same,GI50,A549,> 100 µM (inactive)
same,GI50,HCT-116,> 100 µM (inactive)
same,GI50,TK-10,> 100 µM (inactive)
same,GI50,KM12,> 100 µM (inactive)
same,GI50,SNB-78,> 100 µM (inactive)
same,GI50,OVCAR-8,> 100 µM (inactive)
same,GI50,OVCAR-5,> 100 µM (inactive)
same,GI50,EKVX,> 100 µM (inactive)
same,GI50,DMS-114,> 100 µM (inactive)
same,GI50,OVCAR-3,> 100 µM (inactive)
same,GI50,NCI-H23,> 100 µM (inactive)
same,GI50,SF-295,> 100 µM (inactive)
same,GI50,A498,> 100 µM (inactive)
same,GI50,UACC-257,> 100 µM (inactive)
same,GI50,UO-31,> 100 µM (inactive)
same,GI50,NCI-H226,> 100 µM (inactive)
same,GI50,U-251,> 100 µM (inactive)
same,GI50,CCRF-CEM,> 100 µM (inactive)
same,GI50,NCI-H460,> 100 µM (inactive)
same,GI50,SF-539,> 100 µM (inactive)
same,GI50,SK-MEL-5,> 100 µM (inactive)
same,GI50,HL-60,> 100 µM (inactive)
same,GI50,M14,> 100 µM (inactive)
same,GI50,HOP-92,> 100 µM (inactive)
same,GI50,SK-MEL-28,> 100 µM (inactive)
